Data reported in ChEMBL document CHEMBL4177608, “Design and synthesis of benzimidazole-based Rho kinase inhibitors for the treatment of glaucoma” (Bioorg Med Chem, 2017).
≈ marks a conversion by molar mass, not a printed value.

Tests used:
[1] = 1-Octanol/water partition coefficient, log P of compound at 2 mg after 24 hrs by spectrophotometry based shake flask method; type: physicochemical
[2] = Antioxidant activity assessed as DPPH free radical scavenging activity at 5 ug/ml after 30 mins by spectrophotometric analysis; type: functional
[3] = Antioxidant activity assessed as DPPH free radical scavenging activity at 25 ug/ml after 30 mins by spectrophotometric analysis; type: functional
[4] = Antioxidant activity assessed as DPPH free radical scavenging activity at 50 ug/ml after 30 mins by spectrophotometric analysis; type: functional
[5] = Antioxidant activity assessed as DPPH free radical scavenging activity at 100 ug/ml after 30 mins by spectrophotometric analysis; type: functional
[6] = Antioxidant activity assessed as DPPH free radical scavenging activity at 150 ug/ml after 30 mins by spectrophotometric analysis; type: functional
[7] = Antioxidant activity assessed as DPPH free radical scavenging activity at 200 ug/ml after 30 mins by spectrophotometric analysis; type: functional
[8] = Antioxidant activity assessed as DPPH free radical scavenging activity after 30 mins by spectrophotometric analysis; type: functional
Rattus norvegicus [9] = species: Rattus norvegicus; assay: Reduction in intraocular pressure in Wistar rat model of dexamethasone-induced elevated IOP assessed as change in intraocular pressure at 1 % w/v after 0.5 hrs by tonometry (reference value: 0%); type: functional; parameters: scale not given: the % may be the effect or the level left
Rattus norvegicus [10] = species: Rattus norvegicus; assay: Reduction in intraocular pressure in Wistar rat model of dexamethasone-induced elevated IOP assessed as change in intraocular pressure at 1 % w/v after 1 hr by tonometry (reference value: 0%); type: functional; parameters: scale not given: the % may be the effect or the level left
Rattus norvegicus [11] = species: Rattus norvegicus; assay: Reduction in intraocular pressure in Wistar rat model of dexamethasone-induced elevated IOP assessed as change in intraocular pressure at 1 % w/v after 1.5 hrs by tonometry (reference value: 0%); type: functional; parameters: scale not given: the % may be the effect or the level left
Rattus norvegicus [12] = species: Rattus norvegicus; assay: Reduction in intraocular pressure in Wistar rat model of dexamethasone-induced elevated IOP assessed as change in intraocular pressure at 1 % w/v after 2 hrs by tonometry (reference value: 0%); type: functional; parameters: scale not given: the % may be the effect or the level left
Rattus norvegicus [13] = species: Rattus norvegicus; assay: Reduction in intraocular pressure in Wistar rat model of dexamethasone-induced elevated IOP assessed as change in intraocular pressure at 1 % w/v after 2.5 hrs by tonometry (reference value: 0%); type: functional; parameters: scale not given: the % may be the effect or the level left
Rattus norvegicus [14] = species: Rattus norvegicus; assay: Reduction in intraocular pressure in Wistar rat model of dexamethasone-induced elevated IOP assessed as change in intraocular pressure at 1 % w/v after 3 hrs by tonometry (reference value: 0%); type: functional; parameters: scale not given: the % may be the effect or the level left
Rattus norvegicus [15] = species: Rattus norvegicus; assay: Reduction in intraocular pressure in Wistar rat model of dexamethasone-induced elevated IOP assessed as change in intraocular pressure at 1 % w/v after 4 hrs by tonometry (reference value: 0%); type: functional; parameters: scale not given: the % may be the effect or the level left
Rattus norvegicus [16] = species: Rattus norvegicus; assay: Reduction in intraocular pressure in Wistar rat model of dexamethasone-induced elevated IOP assessed as change in intraocular pressure at 1 % w/v after 5 hrs by tonometry (reference value: 0%); type: functional; parameters: scale not given: the % may be the effect or the level left
Rattus norvegicus [17] = species: Rattus norvegicus; assay: Reduction in intraocular pressure in Wistar rat model of dexamethasone-induced elevated IOP assessed as change in intraocular pressure at 1 % w/v after 6 hrs by tonometry (reference value: 0%); type: functional; parameters: scale not given: the % may be the effect or the level left
Rattus norvegicus [18] = species: Rattus norvegicus; assay: Reduction in intraocular pressure in Wistar rat model of dexamethasone-induced elevated IOP assessed as change in intraocular pressure in contralateral eye at 1 % w/v after 0.5 hrs by tonometry (reference value: 0%); type: ADME, organism-based; parameters: scale not given: the % may be the effect or the level left; conditions: in vivo, topical_or_ocular
Rattus norvegicus [19] = species: Rattus norvegicus; assay: Reduction in intraocular pressure in Wistar rat model of dexamethasone-induced elevated IOP assessed as change in intraocular pressure in contralateral eye at 1 % w/v after 1 hr by tonometry (reference value: 0%); type: ADME, organism-based; parameters: scale not given: the % may be the effect or the level left; conditions: in vivo, topical_or_ocular
Rattus norvegicus [20] = species: Rattus norvegicus; assay: Reduction in intraocular pressure in Wistar rat model of dexamethasone-induced elevated IOP assessed as change in intraocular pressure in contralateral eye at 1 % w/v after 1.5 hrs by tonometry (reference value: 0%); type: ADME, organism-based; parameters: scale not given: the % may be the effect or the level left; conditions: in vivo
Rattus norvegicus [21] = species: Rattus norvegicus; assay: Reduction in intraocular pressure in Wistar rat model of dexamethasone-induced elevated IOP assessed as change in intraocular pressure in contralateral eye at 1 % w/v after 2 hrs by tonometry (reference value: 0%); type: ADME, organism-based; parameters: scale not given: the % may be the effect or the level left; conditions: in vivo
Rattus norvegicus [22] = species: Rattus norvegicus; assay: Reduction in intraocular pressure in Wistar rat model of dexamethasone-induced elevated IOP assessed as change in intraocular pressure in contralateral eye at 1 % w/v after 2.5 hrs by tonometry (reference value: 0%); type: ADME, organism-based; parameters: scale not given: the % may be the effect or the level left; conditions: in vivo
Rattus norvegicus [23] = species: Rattus norvegicus; assay: Reduction in intraocular pressure in Wistar rat model of dexamethasone-induced elevated IOP assessed as change in intraocular pressure in contralateral eye at 1 % w/v after 3 hrs by tonometry (reference value: 0%); type: ADME, organism-based; parameters: scale not given: the % may be the effect or the level left; conditions: in vivo
Rattus norvegicus [24] = species: Rattus norvegicus; assay: Reduction in intraocular pressure in Wistar rat model of dexamethasone-induced elevated IOP assessed as change in intraocular pressure in contralateral eye at 1 % w/v after 4 hrs by tonometry (reference value: 0%); type: ADME, organism-based; parameters: scale not given: the % may be the effect or the level left; conditions: in vivo
Rattus norvegicus [25] = species: Rattus norvegicus; assay: Reduction in intraocular pressure in Wistar rat model of dexamethasone-induced elevated IOP assessed as change in intraocular pressure in contralateral eye at 1 % w/v after 5 hrs by tonometry (reference value: 0%); type: ADME, organism-based; parameters: scale not given: the % may be the effect or the level left; conditions: in vivo
Rattus norvegicus [26] = species: Rattus norvegicus; assay: Reduction in intraocular pressure in Wistar rat model of dexamethasone-induced elevated IOP assessed as change in intraocular pressure in contralateral eye at 1 % w/v after 6 hrs by tonometry (reference value: 0%); type: ADME, organism-based; parameters: scale not given: the % may be the effect or the level left; conditions: in vivo
Rattus norvegicus [27] = species: Rattus norvegicus; assay: Reduction in intraocular pressure in Wistar rat model of dexamethasone-induced elevated IOP assessed as onset time for reduction in intraocular pressure at 1 % w/v by tonometry; type: functional
Rattus norvegicus [28] = species: Rattus norvegicus; assay: Reduction in intraocular pressure in Wistar rat model of dexamethasone-induced elevated IOP assessed as peak effect time for reduction in intraocular pressure at 1 % w/v by tonometry; type: functional, organism-based
Rattus norvegicus [29] = species: Rattus norvegicus; assay: Reduction in intraocular pressure in Wistar rat model of dexamethasone-induced elevated IOP assessed as reduction in intraocular pressure at peak effect time at 1 % w/v by tonometry; type: functional; parameters: scale not given: the % may be the effect or the level left

O=C(CN1CCN(Cc2ccccc2)CC1)Nc1nc2ccccc2[nH]1
logP at 24 h [1]: 1.97 | Activity [2]: 6.28% | Activity [3]: 22.1% | Activity [4]: 33.3% | Activity [5]: 47% | Activity [6]: 52.6% | Activity [7]: 63.9% | IC50 [8]: 134.71 µg/mL (≈ 386 µM) | Activity (Rattus norvegicus [9]): 3.4% | Activity (Rattus norvegicus [10]): 5.58% | Activity (Rattus norvegicus [11]): 6.85% | Activity (Rattus norvegicus [12]): 8.65% | Activity (Rattus norvegicus [13]): 11.45% | Activity (Rattus norvegicus [14]): 10.5% | Activity (Rattus norvegicus [15]): 5.66% | Activity (Rattus norvegicus [16]): 2.9% | Activity (Rattus norvegicus [17]): 0.9% | Activity (Rattus norvegicus [18]): 1.67% | Activity (Rattus norvegicus [19]): 2.47% | Activity (Rattus norvegicus [20]): 3.13% | Activity (Rattus norvegicus [21]): 3.2% | Activity (Rattus norvegicus [22]): 2.72% | Activity (Rattus norvegicus [23]): 2.32% | Activity (Rattus norvegicus [24]): 1.26% | Activity (Rattus norvegicus [25]): 0.83% | Activity (Rattus norvegicus [26]): 0.47% | Time (Rattus norvegicus [27]): 0.5 h | Tmax (Rattus norvegicus [28]): 2.5 h | Activity (Rattus norvegicus [29]): 35.52%

O=C(CN1CCN(CCc2ccccc2)CC1)Nc1nc2ccccc2[nH]1
logP at 24 h [1]: 1.89 | Activity [2]: 8.11% | Activity [3]: 13.5% | Activity [4]: 22.3% | Activity [5]: 38.1% | Activity [6]: 51.8% | Activity [7]: 62.9% | IC50 [8]: 148.39 µg/mL (≈ 408 µM) | Activity (Rattus norvegicus [9]): 2.53% | Activity (Rattus norvegicus [10]): 5.52% | Activity (Rattus norvegicus [11]): 8.97% | Activity (Rattus norvegicus [12]): 10.17% | Activity (Rattus norvegicus [13]): 11.95% | Activity (Rattus norvegicus [14]): 7.1% | Activity (Rattus norvegicus [15]): 3.76% | Activity (Rattus norvegicus [16]): 0.83% | Activity (Rattus norvegicus [17]): 0.4% | Activity (Rattus norvegicus [18]): 1.23% | Activity (Rattus norvegicus [19]): 2.07% | Activity (Rattus norvegicus [20]): 2.9% | Activity (Rattus norvegicus [21]): 3.63% | Activity (Rattus norvegicus [22]): 2.43% | Activity (Rattus norvegicus [23]): 1.67% | Activity (Rattus norvegicus [24]): 0.83% | Activity (Rattus norvegicus [25]): 0.43% | Activity (Rattus norvegicus [26]): 0% | Time (Rattus norvegicus [27]): 0.5 h | Tmax (Rattus norvegicus [28]): 2 h | Activity (Rattus norvegicus [29]): 37.15%

O=C(CN1CCN(C(c2ccccc2)c2ccccc2)CC1)Nc1nc2ccccc2[nH]1
logP at 24 h [1]: 1.89 | Activity [2]: 22.1% | Activity [3]: 32.9% | Activity [4]: 41.5% | Activity [5]: 53.7% | Activity [6]: 66.6% | Activity [7]: 81.4% | IC50 [8]: 88.68 µg/mL (≈ 208 µM) | Activity (Rattus norvegicus [9]): 4.37% | Activity (Rattus norvegicus [10]): 5.83% | Activity (Rattus norvegicus [11]): 10.38% | Activity (Rattus norvegicus [12]): 16.47% | Activity (Rattus norvegicus [13]): 12.4% | Activity (Rattus norvegicus [14]): 8.17% | Activity (Rattus norvegicus [15]): 7.33% | Activity (Rattus norvegicus [16]): 3.67% | Activity (Rattus norvegicus [17]): 1.7% | Activity (Rattus norvegicus [18]): 0.77% | Activity (Rattus norvegicus [19]): 1.13% | Activity (Rattus norvegicus [20]): 3.43% | Activity (Rattus norvegicus [21]): 5.08% | Activity (Rattus norvegicus [22]): 4% | Activity (Rattus norvegicus [23]): 3% | Activity (Rattus norvegicus [24]): 1.53% | Activity (Rattus norvegicus [25]): 0% | Activity (Rattus norvegicus [26]): 0% | Time (Rattus norvegicus [27]): 0.5 h | Tmax (Rattus norvegicus [28]): 2.5 h | Activity (Rattus norvegicus [29]): 51.91%

O=C(CN1CCN(c2ccccn2)CC1)Nc1nc2ccccc2[nH]1
logP at 24 h [1]: 1.05 | Activity [2]: 30.8% | Activity [3]: 40.9% | Activity [4]: 50% | Activity [5]: 57.3% | Activity [6]: 69.1% | Activity [7]: 76.2% | IC50 [8]: 69.97 µg/mL (≈ 208 µM) | Activity (Rattus norvegicus [9]): 4% | Activity (Rattus norvegicus [10]): 7% | Activity (Rattus norvegicus [11]): 10% | Activity (Rattus norvegicus [12]): 15.87% | Activity (Rattus norvegicus [13]): 10.62% | Activity (Rattus norvegicus [14]): 7.82% | Activity (Rattus norvegicus [15]): 5.05% | Activity (Rattus norvegicus [16]): 2.87% | Activity (Rattus norvegicus [17]): 0.65% | Activity (Rattus norvegicus [18]): 0.85% | Activity (Rattus norvegicus [19]): 1.15% | Activity (Rattus norvegicus [20]): 2% | Activity (Rattus norvegicus [21]): 4% | Activity (Rattus norvegicus [22]): 1.07% | Activity (Rattus norvegicus [23]): 0.65% | Activity (Rattus norvegicus [24]): 0% | Activity (Rattus norvegicus [25]): 0% | Activity (Rattus norvegicus [26]): 0% | Time (Rattus norvegicus [27]): 0.5 h | Tmax (Rattus norvegicus [28]): 2 h | Activity (Rattus norvegicus [29]): 51.38%

O=C(CN1CCN(c2ccccc2)CC1)Nc1nc2ccccc2[nH]1
logP at 24 h [1]: 1.29 | Activity [2]: 4.62% | Activity [3]: 11.5% | Activity [4]: 24.1% | Activity [5]: 32.2% | Activity [6]: 40.6% | Activity [7]: 62.1% | IC50 [8]: 165.52 µg/mL (≈ 493 µM) | Activity (Rattus norvegicus [9]): 2.55% | Activity (Rattus norvegicus [10]): 4% | Activity (Rattus norvegicus [11]): 7.75% | Activity (Rattus norvegicus [12]): 11% | Activity (Rattus norvegicus [13]): 13.5% | Activity (Rattus norvegicus [14]): 12.18% | Activity (Rattus norvegicus [15]): 7.77% | Activity (Rattus norvegicus [16]): 1.33% | Activity (Rattus norvegicus [17]): 0.27% | Activity (Rattus norvegicus [18]): 1.97% | Activity (Rattus norvegicus [19]): 3.25% | Activity (Rattus norvegicus [20]): 4.12% | Activity (Rattus norvegicus [21]): 5% | Activity (Rattus norvegicus [22]): 5.65% | Activity (Rattus norvegicus [23]): 3.6% | Activity (Rattus norvegicus [24]): 1.55% | Activity (Rattus norvegicus [25]): 0% | Activity (Rattus norvegicus [26]): 0% | Time (Rattus norvegicus [27]): 0.5 h | Tmax (Rattus norvegicus [28]): 2.5 h | Activity (Rattus norvegicus [29]): 45.73%
